Twelve compounds from ChEMBL document CHEMBL1201862, “PubChem BioAssay data set” (2004) can be followed below.

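Cells were grown in 96-well plates and exposed to each compound for 48 hours at five concentrations; endpoints were interpolated linearly between bracketing concentrations, or set to the highest concentration if not reached. Here, GI50 denotes the concentration required for 50% inhibition of growth.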 The source made the active and inactive calls. Rule as the data show it: active = GI50 up to about 1.1 µM and inactive = higher.

Some test systems named below: A498; BT-549; CAKI-1; EKVX; Hs-578T; IGROV-1; K562; KM12; MDA-MB-231; MDA-MB-435; NCI-H522; OVCAR-3; RPMI-8226; SF-268; SK-MEL-5; SW-620; UACC-62; UO-31; MDA-N.
Common to all, as to assay: NCI anticancer screen, dose series, 48 h

`Cc1ccc(NC(=O)COc2ccc(Cl)cc2)cc1Cl`: the GI50 in the test on A498 was 45.3 µM (inactive); with BT-549, 70.3 µM (inactive); with CAKI-1, 18.7 µM (inactive); in the test with EKVX, 46.3 µM (inactive); in the test on Hs-578T it was 14.2 µM (inactive); in the test with IGROV-1 it was 36.5 µM (inactive). The GI50 in the test with K562 was > 100 µM (inactive); in the test on KM12, > 100 µM (inactive); with MDA-MB-231, 15.2 µM (inactive); in the test on MDA-MB-435, > 100 µM (inactive); in the test on NCI-H522, 75.7 µM (inactive); in the test on OVCAR-3, > 100 µM (inactive). The GI50 with RPMI-8226 was 87.5 µM (inactive); in the test on SF-268, 53.1 µM (inactive); in the test with SK-MEL-5 it was > 100 µM (inactive); in the test on SW-620, > 100 µM (inactive); in the test on UACC-62 it was 53.3 µM (inactive); in the test with UO-31, 30.3 µM (inactive).
In the case of `CCc1n[nH]c(=O)n1-c1ccc2ccccc2c1`, the GI50 in the test on A498, in the test on CAKI-1, in the test with EKVX, in the test on Hs-578T, in the test on IGROV-1 and with K562 was > 100 µM (inactive) throughout. Further, the GI50 in the test with KM12, in the test with MDA-MB-231, with MDA-MB-435, in the test with MDA-N, in the test with NCI-H522 and with OVCAR-3 was > 100 µM (inactive) in each case. Besides, the GI50 in the test with RPMI-8226, with SF-268, with SK-MEL-5, with SW-620, with UACC-62 and with UO-31 was > 100 µM (inactive) each time.
Take `CC(C)(C)c1cc(-c2cc(C(C)(C)C)n(-c3ccccc3)n2)nn1-c1ccccc1`: the GI50 is > 100 µM (inactive) with A498; > 100 µM (inactive) in the test on BT-549; > 100 µM (inactive) in the test on CAKI-1; > 100 µM (inactive) in the test with EKVX; > 100 µM (inactive) with IGROV-1; 3.27 µM (inactive) in the test on K562. In addition, the GI50 in the test on KM12 is 84.5 µM (inactive); in the test with MDA-MB-231, > 100 µM (inactive); with MDA-MB-435, 49.8 µM (inactive); in the test on NCI-H522, > 100 µM (inactive); in the test on OVCAR-3 it was > 100 µM (inactive); in the test with RPMI-8226, > 100 µM (inactive). The GI50 is > 100 µM (inactive) with SF-268; > 100 µM (inactive) with SK-MEL-5; 8.57 µM (inactive) in the test with SW-620; 11.6 µM (inactive) in the test on UACC-62; 30.4 µM (inactive) with UO-31.
As for `CC(=O)Nc1ccc(C(=O)N2N=C(C)/C(=C\c3c(O)ccc4ccccc34)C2=O)cc1`, the GI50 in the test on CAKI-1 is > 100 µM (inactive); in the test on EKVX it was > 100 µM (inactive); in the test with K562, 74.8 µM (inactive); in the test with KM12, > 100 µM (inactive); with NCI-H522 it was 67 µM (inactive); in the test with OVCAR-3, 91.8 µM (inactive). Besides, the GI50 was 56.8 µM (inactive) in the test with RPMI-8226; 56 µM (inactive) in the test on SF-268; 35.4 µM (inactive) in the test on SK-MEL-5; 75.2 µM (inactive) in the test with SW-620; 39 µM (inactive) with UO-31.
For `C=C1C(=O)OC2CC(C)C3(O)CCC(=O)C3(C)CC12` (stereo not given), the GI50 in the test with A498 was 25.8 µM (inactive); in the test on BT-549, 44.2 µM (inactive); with CAKI-1, 17.5 µM (inactive); in the test on EKVX it was 27.2 µM (inactive); in the test with Hs-578T, 25.9 µM (inactive); in the test with IGROV-1, 23.8 µM (inactive). Moreover, the GI50 in the test on KM12 is 20.7 µM (inactive); in the test with MDA-MB-231 it was 26 µM (inactive); with MDA-MB-435, 39.7 µM (inactive); in the test on NCI-H522, 14.3 µM (inactive); in the test on OVCAR-3, 16 µM (inactive); in the test on RPMI-8226, 14.8 µM (inactive). Further, the GI50 in the test on SF-268 was 18.5 µM (inactive); in the test on SK-MEL-5, 36.6 µM (inactive); in the test with SW-620, 42.1 µM (inactive); in the test on UACC-62, 44.3 µM (inactive); in the test on UO-31 it was 28.2 µM (inactive).
Regarding `C=C(C)[C@@H]1CC[C@]2(C(=O)OC)CC[C@]3(C)[C@H](CC[C@@H]4[C@@]5(C)CC[C@H](O)C(C)(C)[C@@H]5CC[C@]43C)[C@@H]12` [METHYL BETULINATE], the GI50 is 18.9 µM (inactive) with A498; 20.8 µM (inactive) in the test with CAKI-1; 21.7 µM (inactive) with EKVX; 21.6 µM (inactive) with Hs-578T; 18.1 µM (inactive) in the test on IGROV-1; 20.5 µM (inactive) with K562. Further, the GI50 in the test with KM12 is 15.6 µM (inactive); with MDA-MB-231, 34 µM (inactive); in the test on MDA-MB-435, 21 µM (inactive); with MDA-N, 18.2 µM (inactive); with NCI-H522, 18.9 µM (inactive); with OVCAR-3 it was 19.8 µM (inactive). Moreover, the GI50 is 21.4 µM (inactive) in the test on SF-268, 18.8 µM (inactive) in the test with SK-MEL-5, 19.6 µM (inactive) with SW-620 and 22.8 µM (inactive) with UO-31.
In the case of `O=C(O)c1cccc(NC(C(=O)c2ccccc2)c2ccccc2)c1` (stereo not given), the GI50 is > 100 µM (inactive) with A498; > 100 µM (inactive) in the test with CAKI-1; > 100 µM (inactive) with EKVX; 0.714 µM (active) in the test with Hs-578T; > 100 µM (inactive) in the test with IGROV-1; > 100 µM (inactive) with K562. For the same compound, the GI50 was > 100 µM (inactive) in the test on KM12; > 100 µM (inactive) with MDA-MB-231; > 100 µM (inactive) in the test on MDA-MB-435; > 100 µM (inactive) in the test with MDA-N; 78.9 µM (inactive) in the test on NCI-H522; > 100 µM (inactive) with OVCAR-3. Besides, the GI50 with RPMI-8226, in the test on SF-268, with SK-MEL-5, with SW-620, in the test with UACC-62 and with UO-31 was > 100 µM (inactive) in each case.
Regarding `CCSc1[nH]c(/N=C(/NC(=O)c2ccccc2)NC(C)C)c(C(N)=O)c1C(N)=O`, the GI50 in the test on CAKI-1, with EKVX, in the test on IGROV-1, with K562, with KM12 and with MDA-MB-231 was > 10 µM (inactive) each time. Further, the GI50 in the test with MDA-MB-435, in the test on MDA-N, in the test with RPMI-8226, in the test on SF-268, in the test on SK-MEL-5 and in the test with SW-620 was > 10 µM (inactive) throughout. Moreover, the GI50 with UACC-62 is > 10 µM (inactive).
As to `CCCCCCCCCCCCCCCCCCNc1nc(=O)n(C2CC(OP(=O)(O)OCC3OC(n4cc(F)c(=O)[nH]c4=O)CC3O)C(CO)O2)cc1F` (stereo not given), the GI50 with A498 is 13 µM (inactive); in the test on CAKI-1, 26.2 µM (inactive); with EKVX it was > 100 µM (inactive); in the test with Hs-578T, 35.2 µM (inactive); with IGROV-1, 46.3 µM (inactive); with K562, 26.9 µM (inactive). In addition, the GI50 in the test on KM12 was 11.2 µM (inactive); in the test with MDA-MB-231 it was > 100 µM (inactive); with MDA-MB-435 it was 75.2 µM (inactive); in the test on NCI-H522 it was 30.3 µM (inactive); with OVCAR-3, 29 µM (inactive); with RPMI-8226, 11.2 µM (inactive). For the same compound, the GI50 with SF-268 is 12.4 µM (inactive); in the test with SK-MEL-5 it was 34.7 µM (inactive); in the test on SW-620 it was 18.8 µM (inactive); with UACC-62, 20.5 µM (inactive); with UO-31 it was 13.5 µM (inactive).
`Cc1n[nH]/c(=N\S(=O)(=O)c2ccc(/N=N/c3c(O)c(C(=O)O)cc4ccccc34)cc2)s1`: the GI50 with CAKI-1, with EKVX, in the test with Hs-578T, with IGROV-1, in the test on K562 and in the test with KM12 was > 100 µM (inactive) in each case. The GI50 with MDA-MB-231, in the test on MDA-MB-435, in the test with MDA-N, with NCI-H522, in the test with OVCAR-3 and with RPMI-8226 was > 100 µM (inactive) each time. Besides, the GI50 in the test on SF-268, with SK-MEL-5, with SW-620, in the test with UACC-62 and with UO-31 was > 100 µM (inactive) in each case.
On to `O=C(COc1ccc(Cl)c(Cl)c1)N(Cc1ccccc1)Cc1ccc[n+](Cc2ccc(Cl)cc2S(=O)(=O)F)c1`, for which the GI50 is > 100 µM (inactive) in the test on A498; > 100 µM (inactive) in the test on CAKI-1; 40.8 µM (inactive) in the test with Hs-578T; 40.6 µM (inactive) with IGROV-1; 53 µM (inactive) in the test on K562; 23.4 µM (inactive) in the test on KM12. The GI50 in the test with MDA-MB-231 was 14.8 µM (inactive); with MDA-MB-435, 29.9 µM (inactive); in the test with NCI-H522, 94.6 µM (inactive); with OVCAR-3, 65.5 µM (inactive); in the test on RPMI-8226, 13.3 µM (inactive); in the test on SF-268, > 100 µM (inactive). The GI50 in the test with SK-MEL-5 is 22.6 µM (inactive); in the test on SW-620, 54.2 µM (inactive); with UACC-62, 62.1 µM (inactive); in the test on UO-31, > 100 µM (inactive).
Regarding `O=C(c1cc2c(c3ccccc13)NCCN=C2C(F)(F)F)C(F)(F)F`, the GI50 in the test on A498 is 17.1 µM (inactive); in the test with CAKI-1, 32.4 µM (inactive); in the test on EKVX it was 47.4 µM (inactive); with Hs-578T, 14.3 µM (inactive); in the test with IGROV-1, 29.6 µM (inactive); with K562 it was 7.16 µM (inactive). Besides, the GI50 was 19.4 µM (inactive) with KM12; 20.2 µM (inactive) in the test on MDA-MB-231; 34.2 µM (inactive) with MDA-MB-435; 21.4 µM (inactive) in the test with MDA-N; 20.6 µM (inactive) with NCI-H522; 26 µM (inactive) in the test on OVCAR-3. Besides, the GI50 in the test on RPMI-8226 was 6.95 µM (inactive); in the test with SF-268 it was 24 µM (inactive); in the test with SK-MEL-5 it was 16.4 µM (inactive); in the test with SW-620 it was 35.2 µM (inactive); in the test with UO-31, 51.9 µM (inactive).
